Results published in patent US7718641B2, “Pyrrolo [3,4-H] isoquinoline compounds and methods for modulating gated ion channels” (Aros Pharma ApS, priority 2005, dated 2010).

Target: T1, heteromeric hASIC1a+3 (Homo sapiens, UniProt P78348+Q9UHC3)
T1 sequence (P78348 1-528): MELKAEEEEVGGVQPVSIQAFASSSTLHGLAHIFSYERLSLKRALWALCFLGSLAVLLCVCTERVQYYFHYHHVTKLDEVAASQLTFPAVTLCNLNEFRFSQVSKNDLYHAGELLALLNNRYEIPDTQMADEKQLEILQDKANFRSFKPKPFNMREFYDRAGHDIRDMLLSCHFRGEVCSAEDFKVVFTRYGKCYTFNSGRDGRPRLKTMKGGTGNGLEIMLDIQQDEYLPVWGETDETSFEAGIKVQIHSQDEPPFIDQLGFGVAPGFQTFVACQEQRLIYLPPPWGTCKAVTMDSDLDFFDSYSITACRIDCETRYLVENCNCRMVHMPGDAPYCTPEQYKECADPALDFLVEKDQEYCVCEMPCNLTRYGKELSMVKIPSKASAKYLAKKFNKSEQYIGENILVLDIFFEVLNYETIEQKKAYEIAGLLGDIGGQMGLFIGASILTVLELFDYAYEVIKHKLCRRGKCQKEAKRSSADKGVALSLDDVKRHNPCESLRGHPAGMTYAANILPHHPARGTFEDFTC
T1 sequence (Q9UHC3 1-531): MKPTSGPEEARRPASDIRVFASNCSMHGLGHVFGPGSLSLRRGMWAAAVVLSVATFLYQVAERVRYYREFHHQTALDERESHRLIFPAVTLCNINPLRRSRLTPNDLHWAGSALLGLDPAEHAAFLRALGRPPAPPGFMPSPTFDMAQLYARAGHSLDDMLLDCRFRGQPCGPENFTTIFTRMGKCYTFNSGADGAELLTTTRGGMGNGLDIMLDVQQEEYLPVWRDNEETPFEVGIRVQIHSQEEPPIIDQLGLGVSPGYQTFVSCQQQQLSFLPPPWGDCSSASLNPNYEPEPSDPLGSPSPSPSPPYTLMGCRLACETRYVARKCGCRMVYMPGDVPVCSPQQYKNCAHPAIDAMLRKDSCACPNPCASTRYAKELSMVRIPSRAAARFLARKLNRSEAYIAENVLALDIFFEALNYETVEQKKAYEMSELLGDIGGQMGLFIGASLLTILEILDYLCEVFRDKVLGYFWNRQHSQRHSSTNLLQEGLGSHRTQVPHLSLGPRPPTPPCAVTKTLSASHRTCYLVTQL
Test: Two-electrode voltage clamp in Xenopus laevis oocytes expressing heteromeric hASIC1a+3
Format: cell-based
Design: expressed in transfected cells
Conditions: 30 μM, OpusExpress
Protocol: Two-electrode voltage clamp electrophysiological assays in Xenopus laevis oocytes expressing gated ion channels are performed as follows:
Oocytes are surgically removed from adult Xenopus laevis and treated for 2 h at room temperature with 1 mg/ml type I collagenase (Sigma) in Barth's solution under mild agitation. Selected oocytes at stage IV-V are defolliculated manually before nuclear microinjection of 2.5-5 ng of a suitable expression vector, such as pcDNA3, comprising the nucleotide sequence encoding a gated ion channel subunit protein. In such an experiment, the oocytes express homomultimeric proton-gated ion channels on their surface. In an alternate experiment, one, two, three or more vectors comprising the coding sequences for distinct gated ion channel subunits are co-injected in the oocyte nuclei. […] After 2-4 days of expression at 19° C. in Barth's solution containing […] gentamicin and 1.8 mM CaCl2, gated ion channels are activated by applying an acidic solution (pH <7) and currents are recorded in a two electrode voltage-clamp configuration, using an OC-725B amplifier (Warner Instruments). Currents are acquired and digitized at 500 Hz on an Apple Imac G3 computer with an A/D NB-MIO-16XL interface (National Instruments) and recorded traces are post-filtered at 100 Hz in Axograph (Axon Instruments) (Neher, E. and Sakmann, B. (1976) Nature 260:799-802). […]

COc1ccc(F)cc1-c1cc2c(c3c1CCN(C)C3)NC(=O)/C2=N/O [Compound A, 5-(5-fluoro-2-methoxyphenyl)-6,7,8,9-tetrahydro-3-(hydroxyimino)-8-methyl-1H-pyrrolo[3,2-h]isoquinoline-2(3H)-one]
effect on inward currents elicited by pH 6.5, heteromeric hASIC1a+3: effectively modulates the activity
